In assay [1] the target is T1, Gdx-Clo (Clostridiales bacterium oral taxon 876, UniProt U2EQ00).
T1 sequence (U2EQ00 1-105): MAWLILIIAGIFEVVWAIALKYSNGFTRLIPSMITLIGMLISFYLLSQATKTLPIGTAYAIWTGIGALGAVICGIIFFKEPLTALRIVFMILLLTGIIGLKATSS
Nature of the assay: Pyranine stoichiometry assay in proteoliposomes. To be noted: 10-fold substrate gradient, equilibrium at −60 mV. Type of assay: biochemical, Clostridales oral taxon 876. Here is the method:
Unilamellar liposomes were formed by extrusion through a 400-nm membrane filter and the external pyranine was removed by passing liposomes through a Sephadex G-50 column spin column equilibrated in an internal buffer with substrate. The external assay buffers contained 25 mM HEPES, pH 7.53, 0.4 mM substrate, and varying KCl concentration (3–46 mM) to establish the membrane potential, with NaCl to bring the total salt concentration to 200 mM. Proteoliposomes were diluted 200-fold into the external buffer, and after ∼30 s to establish a baseline, valinomycin (final concentration 0.2 ng/ml) was added together with the substrate (final concentration 4 mM). Fluorescence spectra were monitored (λex = 455 nm; λem = 515 nm) for ∼300 s. The membrane potential was calculated using the Nernst potential for K^+: ψcalc=RT/Fln[K^+]out/[K^+]in. (1)
Fluorescence emission time courses were corrected for baseline drift measured prior to substrate and valinomycin addition. The stoichiometry was determined from the voltage at which electrochemical equilibrium occurred (no change in fluorescence over time) using the following equation: Erev=(n/m−n*RT/Fln[substrate^+]in/[substrate^+]out), (2) where n and m represent the stoichiometric coefficients of substrate and protons, respectively. […]

Assay [2] deals with T1, Gdx-Clo. Nature of the assay: SSM electrophysiology of Gdx-Clo proteoliposomes. As to conditions: for Transport currents in substrate screen: 2 mM substrate. Type of assay: biochemical, Clostridales oral taxon 876. Here is the method: (§1) Gdx-Clo ([Kermani et al., 2018]), Gdx-Eco ([Kermani et al., 2018]), EmrE ([Kermani et al., 2022]), and Gdx-pAmi ([Martinez-Vaz et al., 2022]) construct design and purification have been described previously. […] Proteins were overexpressed in C41(DE3). Expression was induced by the addition of 0.2 mM IPTG for 3 h. Cells were lysed and extracted with 2% n-decyl-β-D-maltoside (DM) for 2 h. After pelleting insoluble cell debris, proteins were purified using cobalt affinity resin. Wash buffer contained 25 mM Tris, pH 8.5, 150 mM NaCl, and 5 mM DM. For Gdx-pAmi, NaCl concentration was increased to 500 mM NaCl. The affinity column was washed with wash buffer, then wash buffer with 10 mM imidazole, prior to elution with wash buffer with 400 mM imidazole. For Gdx-Clo and Gdx-Eco, histidine tags were cleaved with LysC (200 ng/mg of protein; 2 h at room temperature; New England Biolabs), and for all others, histidine tags were cleaved with thrombin (1 U/mg of protein, overnight at room temperature; MilliporeSigma). Proteins were further purified using a gel filtration Superdex200 column (Cytiva) equilibrated with 100 mM NaCl, 10 mM N-2-hydroxyethylpiperazine-N′-2-ethanesulfonic acid (HEPES), pH 7.5, and 5 mM DM. Purified proteins were stored at 4°C for up to 5 days before detergent binding assays. To prepare proteoliposomes for electrophysiology assays, purified protein was mixed with E. coli polar lipid extract (10 mg/ml; Avanti Polar Lipids) solubilized with 35 mM 3-[(3-cholamidopropyl)dimethylammonio]-1-propanesulfonate (CHAPS) at a protein to lipid ratio of 40 μg SMR transporter: mg lipid (1:370 protein:lipid molar ratio) prior to detergent removal by dialysis. For preparations that included Fluc-Bpe, liposomes were reconstituted with a molar ratio of 0.3 Fluc-Bpe:1 SMRGdx: 5920 lipid (1 μg Fluc-Bpe and ∼2.5 μg SMRGdx per mg lipid). For liposome transport assays, proteoliposomes were prepared similarly, except that a 2:1 mixture of 1-palmitoyl, 2-oleoylphosphatidylethanolamine (POPE) and 1-palmitoyl, 2-oleoylphosphatidylglycerol (POPG) (10 mg/ml; Avanti Polar Lipids) was used with 0.2 μg protein/mg lipid. Proteoliposomes were stored at −80°C until use.
(§2) SSM experiments were performed using SURFE^2R N1 instrument (Nanion Technologies). Sensors were prepared with a 1,2-diphytanoyl-sn-glycero-3-phosphocholine (DPhPC) lipid monolayer according to published protocols ([Bazzone et al., 2017]). Each sensor’s capacitance and conductance were verified before use (<80 nF capacitance, <50 nS conductance) using Nanion software protocols. Proteoliposome stock was diluted 1:25 in assay buffer (100 mM KCl, 100 mM KPO4, pH 7.5) prior to adsorption to the DPhPC monolayer. For substrate screening experiments, reference substrate samples (Gdm^+ for SMRGdx, and TPA^+ for SMRQac) were checked periodically to test for the stability of the sensor; if the current amplitude of the reference compound differed by >10% on one sensor, it indicated the desorption of liposomes, and the sensor was not used for further experiments. For every SSM electrophysiology experiment, we used the same general solution exchange protocol: after 2 s perfusion with a non-activating solution, we perfused substrate-containing buffer for 2 s and then returned to the equilibrium condition with a 4 s perfusion of non-activating buffer. For experiments with the S104C/A70C crosslinked variant, reducing conditions were established by the addition of 2.5 mM tris(2-carboxyethyl)phosphine (TCEP) to the activating and non-activating buffers.
(§3) We screened a series of metformin metabolites for transport using SSM electrophysiology (Fig. 2, A and B).

The target in a further assay is Gdx-Eco (Escherichia coli, UniProt P69937). Description: SSM electrophysiology of Gdx-Eco proteoliposomes. Type of assay: biochemical. To be noted: for Transport currents in substrate screen: 2 mM substrate; for Km: pH 7.5, mean ± SEM, read-out: Km determined using SSM electrophysiology. The procedure:
as §1, §2, §3

In another assay the test system is Gdx-pAmi. Description: SSM electrophysiology of Gdx-pAmi proteoliposomes. It counts as biochemical, Aminobacter sp. MET. To be noted: for Transport currents in substrate screen: 2 mM substrate; for Km: pH 7.5, mean ± SEM, read-out: Km determined using SSM electrophysiology. The procedure:
as §1, §2, §3

The mark [3] stands for this setting: pH 7.5, mean ± SEM, read-out: Km determined using SSM electrophysiology.
[4] abbreviates: substrate at fivefold Km, normalized to Fluc-Bpe fluoride current.

This note sets out measurements from publication PMC10829512, “Transport of metformin metabolites by guanidinium exporters of the small multidrug resistance family” (The Journal of General Physiology, 2024).

“And” between values parts separate entries of the source, which are not always exact repeats. Equal values may be shown once. Read-outs that look alike come from different tables or passages of the source.

Sequence of Gdx-Eco (P69937 whole entry): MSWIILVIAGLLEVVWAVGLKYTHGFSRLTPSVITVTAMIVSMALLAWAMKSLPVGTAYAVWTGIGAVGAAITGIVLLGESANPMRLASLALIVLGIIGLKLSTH

One may read the Km as the substrate concentration at which the rate is half of its maximum. Consider `N=C(N)NC(N)=O` [Guanylurea, guanylurea], for which, at Gdx-Clo [1], the Proton coupling stoichiometry is listed as 2 H^+: 1 solute. For the same compound, the “Transport currents in substrate screen” value at Gdx-Clo [2] was “transported”; on Gdx-Eco, “negative capacitive currents”; in the assay on Gdx-pAmi it was “negative capacitive currents”. Moreover, the Km came out at 220 ± 60 µM at Gdx-Clo [2] (setting [3]); 220 µM on Gdx-Clo [2] (read-out: Km value); 850 ± 100 µM on Gdx-Eco; 5000 µM in the assay with Gdx-pAmi (listed as guanylurea); 5200 ± 2000 µM in the assay on Gdx-pAmi.
For the compound `N=C(N)N` [Gdm^+, guanidinium], the Proton coupling stoichiometry at Gdx-Clo [1] was 2 H^+: 1 solute. Moreover, the figures for the “Transport currents in substrate screen” value at Gdx-Clo [2], at Gdx-Eco and in the assay on Gdx-pAmi were “transported”, “negative capacitive currents” and “negative capacitive currents”, respectively. For the same compound, the Km was 500 ± 100 µM at Gdx-Clo [2] (setting [3]); 500 µM on Gdx-Clo [2] (read-out: Km value); 1700 ± 500 µM on Gdx-Eco; 16000 µM and 15700 µM with Gdx-pAmi. In addition, the “Maximal velocity for Gdm+ relative to guanylurea” value at Gdx-Clo [2] (setting [4]) and at Gdx-Eco (setting [4]) was “approximately twofold higher” each time. Also, the “Turnover rate of Gdm+ relative to guanylurea” value in the assay on Gdx-pAmi (substrate at fivefold Km, normalized to Fluc-Bpe fluoride current and reconstitution efficiency) is recorded as “comparable”.
